Patent US20080051463A1, “ANTHRACENE COMPOUNDS AND THEIR USE FOR TREATING BENIGN AND MALIGNANT TUMOR DISORDERS” (AETERNA ZENTARIS GmbH, priority 2006, published 2008)
Converted amounts (≈) assume the structure as drawn. “And” between values parts separate entries of the source, which are not always exact repeats. Identical values can stand only once.

Assays:
[1] = system: RKOp27 human colon carcinoma cells, p27kiP1 induced; assay: Proliferation test, RKOp27 cell system with induced p27kiP1 expression; type: cell-based; conditions: RKOp27 with induced expression of p27kiP1, read-out: RKOP27ind EC50
Source text: (§1) The antiproliferative activity of the compounds 1, 2, 4, 6, 7, 9, 10, 11, 12 and 13 according to the invention was investigated in a proliferation test performed on established tumor cell lines (D. A. Scuderio et al. Cancer Res. 1988, 48: 4827-4833).
(§2) The test used determines the cellular dehydrogenase activity and makes it possible to determine cell viability and determine cell number indirectly.
(§3) The cell lines used are the human cervical carcinoma cell line KB/HeLa (ATCC CCL17), the ovarian adenocarcinoma cell line SKOV-3 (ATCC HTB77), the human glioblastoma cell line SF-268 (NCI-503138) and the lung carcinoma cell line NCI-H460 (NCI-503473). In addition, an RKOp27 cell system was used for investigating the cell cycle-specific effect of the substance (M. Schmidt et al. Oncogene 2000, 19(20): 2423-9).
(§4) RKO is a human colon carcinoma line in which expression of the cell cycle inhibitor p27^kiP1 can be induced using the ecdysone expression system and lead to cell cycle arrest specifically in […].
(§5) By contrast, cell cycle-specific substances, such as, for example, tubulin inhibitors, are only cytotoxic when cells are not arrested and the cell cycle is passed through.

[2] = system: human glioblastoma cell line SF-268; assay: Proliferation test (cellular dehydrogenase activity), SF-268; type: cell-based
Source text: as §1, §2, §3

[3] = system: lung carcinoma cell line NCI-H460; assay: Proliferation test (cellular dehydrogenase activity), NCI-H460; type: cell-based; conditions: Homo sapiens
Source text: as §1, §2, §3

[4] = system: bovine tubulin; assay: Inhibition of the polymerization of bovine tubulin (in vitro); type: biochemical; conditions: for Inhibition at 10 μg/ml [%]: tubulin with 30% associated proteins (MAPs), repeat values; for EC50 of polymerization inhibition of tubulin: bovine tubulin with 30% associated proteins (MAPs)
Source text: In this test, tubulin purified by polymerization and depolymerization cycles is used, which is polymerized by addition of GTP and heating.
Table 1 states the %-inhibition values and Table 2 states the EC50 values of polymerization inhibition of tubulin with 30% associated proteins (MAPs).

[5] = system: human cervical carcinoma cell line KB/HeLa; assay: Proliferation test (cellular dehydrogenase activity), KB/HeLa; type: cell-based
Source text: as §1, §2, §3

[6] = system: ovarian adenocarcinoma cell line SKOV-3; assay: Proliferation test (cellular dehydrogenase activity), SK-OV-3; type: cell-based; conditions: Homo sapiens
Source text: as §1, §2, §3

[7] = system: RKOp27 human colon carcinoma cells; assay: Proliferation test, RKOp27 cell system without p27kiP1 expression; type: cell-based; conditions: RKOp27 without expression of p27kiP1
Source text: as §1, §2, §3, §4, §5

[8] = system: acute myeloid leukaemia cell line LT12; assay: XTT antiproliferative test, LT12; type: cell-based; conditions: LT12 wild type
Source text: (§6) For further characterization, the compounds 6 and 7 according to the invention were investigated with regard to multidrug-resistant (MDR) cell lines as compared with the nonresistant wild-type cell lines.
(§7) The cell lines which were investigated are the murine cell line L1210 (ATCC CCL219), the acute myeloid leukaemia cell line LT12 (De Vries et al.; University Rotterdam) and the resistant lines L1210/VCR (Asta Medica Laboratory) and LT12/mdr (De Vries et al.; University Rotterdam).

[9] = system: murine cell line L1210; assay: XTT antiproliferative test, L1210; type: cell-based; conditions: L1210 wild type
Source text: as §6, §7

[10] = system: doxorubicin-resistant P388 cell line; assay: XTT antiproliferative test, doxorubicin-resistant P388; type: cell-based, murine
Source text: as §6
(§8) The murine P388 cell line (methylcholanthrene-induced lymphoid neoplasm) [R. Supino et al.; Inst. Nazionale per lo Studio e las cura die Tumori; Milan)] and the doxorubicin-resistant P388 cell line (NSC-123127) were also included as test systems.

[11] = system: murine P388 cell line; assay: XTT antiproliferative test, P388; type: cell-based; conditions: P388 wild type
Source text: as §6, §8

[12] = system: T1, porcine brain tubulin; assay: Inhibition of the polymerization of porcine brain tubulin (turbidimetric); type: biochemical; conditions: porcine brain tubulin with about 15% MAPs, GTP, 37° C.
T1 construct: In addition to tubulin, the protein used comprises about 15% of associated proteins (MAPs)
Procedure: b) In an in vitro test, the compounds 1, 2, 4 and 7 were tested for inhibition of the polymerization of porcine brain tubulin. In this test, tubulin purified by polymerization and depolymerization cycles is used (Shelanski et al. Proc. Natl. Acad. Sci. U.S.A. 1973, 70, 765-768 modified according to Vater et al. Acta Histochem. Suppl. 1986, 33, 123-129), which is polymerized by addition of GTP and heating to 37° C. In addition to tubulin, the protein used comprises about 15% of associated proteins (MAPs). The measurement values were determined turbidimetrically according to Gaskin et al. J. Mol. Biol. 89 (1974) 737-755.
Table 3 states the EC50 value of the polymerization inhibition.

COC(=O)C=C1c2ccccc2C(=O)c2ccccc21 [Compound 15, (10-oxo-10H-anthracen-9-ylidene)-acetic acid methyl ester]
melting point: 113 °C

Cc1ccc(C(=O)C=C2c3ccccc3C(=O)c3ccccc32)cc1 [Compound 9, 10-(2-oxo-2-p-tolyl-ethylidene)-10H-anthracen-9-one]
EC50 [1]: > 3.16 µg/mL
melting point: 129 °C
EC50 [2]: 0.2 µg/mL (≈ 0.617 µM)
EC50 [3]: 0.11 µg/mL (≈ 0.339 µM)
Inhibition at 10 μg/ml [%] [4]: 98.3% and 99.8% and 100.0%
EC50 of polymerization inhibition of tubulin [4]: 0.49 µg/mL
EC50 [5]: 0.2 µg/mL (≈ 0.617 µM)
EC50 [6]: 0.13 µg/mL (≈ 0.401 µM)
EC50 [7]: 0.09 µg/mL (≈ 0.277 µM)

COc1ccc(C(=O)C=C2c3ccccc3C(=O)c3ccccc32)cc1OC [Compound 6, 10-[2-(3,4-dimethoxy-phenyl)-2-oxo-ethylidene]-9(10H)-anthracenone]
IC50 ([8]; Rattus norvegicus, LT12, XTT): 0.1 µg/mL (≈ 0.27 µM)
LT12 IC50 ([8]; XTT): 0.17 µg/mL
EC50 [1]: > 3.16 µg/mL
melting point: 160 °C
IC50 ([9]; Mus musculus, L1210, XTT): 0.32 µg/mL (≈ 0.864 µM)
L1210 IC50 ([9]; XTT): 0.35 µg/mL
EC50 [3]: 0.29 µg/mL (≈ 0.783 µM)
Inhibition at 10 μg/ml [%] [4]: 68.9% and 86.1% and 99.0%
IC50 ([10]; Mus musculus, P388, XTT, read-out: P388ADR IC50): 0.25 µg/mL (≈ 0.675 µM)
P388ADR IC50 ([10]; XTT): 0.49 µg/mL
EC50 [5]: 0.458 µg/mL (≈ 1.24 µM)
IC50 ([11]; Mus musculus, P388, XTT): 0.35 µg/mL (≈ 0.945 µM)
P388 IC50 ([11]; XTT): 0.39 µg/mL
EC50 [7]: 0.24 µg/mL (≈ 0.648 µM)

COc1cc(C(=O)C=C2c3ccccc3C(=O)c3ccccc32)cc(OC)c1OC [Compound 16, 10-[2-oxo-2-(3,4,5-trimethoxy-phenyl)-ethylidene]-10H-anthracen-9-one]
melting point: 151 to 152 °C
Inhibition at 10 μg/ml [%] [4]: 65.0% and 65.5% and 61.9%

O=C(C=C1c2ccccc2C(=O)c2ccccc21)c1cccc(O)c1 [Compound 12, 10-[2-(3-hydroxy-phenyl)-2-oxo-ethylidene]-10H-anthracen-9-one]
EC50 [1]: > 3.16 µg/mL
melting point: 185 °C
EC50 [2]: 2.22 µg/mL (≈ 6.8 µM)
EC50 [3]: 0.61 µg/mL (≈ 1.87 µM)
Inhibition at 10 μg/ml [%] [4]: 83.1% and 95.0% and 92.7% and 86.9%
EC50 [5]: 1.4 µg/mL (≈ 4.29 µM)
EC50 [6]: 3.03 µg/mL (≈ 9.28 µM)
EC50 [7]: 0.63 µg/mL (≈ 1.93 µM)

O=C(C=C1c2ccccc2C(=O)c2ccccc21)c1ccccc1 [Compound 18, 10-(2-oxo-2-phenyl-ethylidene)-10H-anthracen-9-one]
melting point: 128 °C
Inhibition at 10 μg/ml [%] [4]: 54.9% and 69.9% and 79.8% and 71.0%

COc1csc(C(=O)C=C2c3ccccc3C(=O)c3ccccc32)c1 [Compound 2, 10-[2-(4-methoxy-thiophen-2-yl)-2-oxo-ethylidene]-10H-anthracen-9-one]
EC50 of the polymerization inhibition [12]: 2.3 µg/mL
EC50 [1]: > 3.16 µg/mL
melting point: 200 to 201 °C
EC50 [2]: 0.331 µg/mL (≈ 0.956 µM)
EC50 [3]: 0.931 µg/mL (≈ 2.69 µM)
EC50 [5]: 0.248 µg/mL (≈ 0.716 µM)
EC50 [6]: 0.416 µg/mL (≈ 1.2 µM)
EC50 [7]: 0.802 µg/mL (≈ 2.32 µM)

COc1ccc(C(=O)C=C2c3ccccc3C(O)c3ccccc32)cc1 (stereo not drawn) [Compound 4, 2-(10-hydroxy-10H-anthracen-9-ylidene)-1-(4-methoxy-phenyl)-ethanone]
EC50 of the polymerization inhibition [12]: 1.2 µg/mL
EC50 [1]: > 3.16 µg/mL
melting point: 169 to 172 °C
EC50 [2]: 0.227 µg/mL (≈ 0.663 µM)
EC50 [3]: 0.203 µg/mL (≈ 0.593 µM)
EC50 [5]: 0.181 µg/mL (≈ 0.529 µM)
EC50 [6]: 0.171 µg/mL (≈ 0.499 µM)
EC50 [7]: 0.108 µg/mL (≈ 0.315 µM)

O=C(C=C1c2ccccc2C(=O)c2ccccc21)c1cccs1 [Compound 11, 10-(2-oxo-2-thiophen-2-yl-ethylidene)-10H-anthracen-9-one]
EC50 [1]: > 3.16 µg/mL
melting point: 126 °C
EC50 [3]: 1.05 µg/mL (≈ 3.32 µM)
EC50 [5]: 2.65 µg/mL (≈ 8.38 µM)

COc1ccc(C(=O)C=C2c3ccccc3C(=O)c3ccccc32)c(O)c1OC [Compound 8, 10-[2-(2-hydroxy-3,4-dimethoxy-phenyl)-2-oxo-ethylidene]-10H-anthracen-9-one]
melting point: 176 to 178 °C

O=C(O)C=C1c2ccccc2C(=O)c2ccccc21 [Compound 17, (10-oxo-10H-anthracen-9-ylidene)-acetic acid]
melting point: 180 to 182 °C

COc1ccc(N2CCN(C(=O)C=C3c4ccccc4C(=O)c4ccccc43)CC2)cc1 [Compound 5, 10-{2-[4-(4-methoxy-phenyl)-piperazin-1-yl]-2-oxo-ethylidene}-10H-anthracen-9-one]
melting point: 189 to 190 °C

O=C1c2ccccc2C(=CC(=O)N2CCSCC2)c2ccccc21 [Compound 3, 10-(2-oxo-2-thiomorpholin-4-ylethylidene)-10H-anthracen-9-one]
melting point: 177 to 178 °C

O=C(C=C1c2ccccc2C(=O)c2ccccc21)c1ccc(O)cc1 [Compound 10, 10-[2-(4-hydroxy-phenyl)-2-oxo-ethylidene]-10H-anthracen-9-one]
EC50 [1]: > 3.16 µg/mL
melting point: 211 to 212 °C
EC50 [3]: 1.34 µg/mL (≈ 4.11 µM)
Inhibition at 10 μg/ml [%] [4]: 85.0% and 94.8% and 98.4% and 98.6%
EC50 of polymerization inhibition of tubulin [4]: 4.87 µg/mL
EC50 [5]: 2.65 µg/mL (≈ 8.12 µM)
EC50 [7]: 1.38 µg/mL (≈ 4.23 µM)

COc1cccc(C(=O)C=C2c3ccccc3C(=O)c3ccccc32)c1 [Compound 13, 10-[2-(3-methoxy-phenyl)-2-oxo-ethylidne]-10H-anthracen-9-one]
EC50 [1]: > 3.16 µg/mL
EC50 [3]: 1.16 µg/mL (≈ 3.41 µM)
Inhibition at 10 μg/ml [%] [4]: 72.6% and 85.9% and 87.3% and 93.7%
EC50 [5]: 1.89 µg/mL (≈ 5.55 µM)
EC50 [7]: 1.1 µg/mL (≈ 3.23 µM)
